According to patent EP1143981B1, “USE OF N-GLYCOLNEURAMINIC ACID AND ITS DERIVATIVES FOR THE MANUFACTURE OF A MEDICAMENT FOR THE TREATMENT OF HIV INFECTIONS” (Glukor, Inc., priority 1998, dated 2000):
pIC50: −log10 of the molar value.

Legend:
[1] = system: HIV-1ROJO; experiment: Reverse transcriptase activity assay in infected PBMCs; format: cell-based; details: PBMCs
Source text: PBMCs were isolated from fresh human blood obtained commercially from the American Red Cross (Baltimore, Maryland). CEM-SS cells were obtained from the NIH AIDS reagent program. The low passage, lymphotropic clinical isolate ROJO was obtained from a pediatric patient attending the AIDS Clinic at the University of Alabama at Birmingham. Phytohemagglutinin (PHA-P) was obtained from Sigma Chemical Co. (St. Louis, MO) and recombinant IL-2 was obtained from Amgen (San Francisco, CA). As a positive control for antiviral assays, AZT was obtained from the NIH AIDS Reagent Program. HIV-1RF also was obtained from the NIH AIDS reagent program. Tritiated thymidine triphosphate was obtained from New England Nuclear (Boston, MA). Each plate in each experiment contained cell control wells (cells only), virus control wells (cells plus virus), drug toxicity control wells (cells plus drug only), drug colorimetric control wells (drug only) as well as experimental wells (drug plus cells plus virus).
Fresh human PBMCs were isolated from voluntary Red Cross donors, seronegative for HIV and HBV. Leukophoresed blood was diluted 1:1 with Dulbecco's PBS, layered over 14 mL of Ficoll-Hypaque density gradient in a 50mL centrifuge and then centrifuged for 30 minutes at 600 x g. Banded PBMCs were gently aspirated from the resulting interface and subsequently washed twice with PBS by low speed centrifugation. […] PBMCs were maintained in this medium at a concentration of 1-2 x 10^6 cells/mL with bi-weekly medium changes until used in the assay.
(§1) For the standard PBMC assay, PHA-P stimulated cells from at least two normal donors were pooled, diluted in fresh medium to a final concentration of 1 x 10^6 cells/mL, and plated in the interior wells of a 96 well round bottom microplate at 50 µL/well (5 x 10^4 cells/well). Test drug dilutions were prepared at a 2X concentration in microfuge tubes and 100 µL of each concentration was placed in appropriate wells in a standard format. A predetermined dilution of virus stock was placed in each test well (50 µL, final MOI ≅ 0.1). Wells with cells and virus alone were used for virus control. Separate plates were prepared identically without virus for drug cytotoxicity studies using an XTT assay system. The PBMC cultures were maintained for seven days following infection, at which time cell-free supernatant samples were collected and assayed for reverse transcriptase activity as described below.
Virus Preparation: Pre-tittered aliquots of HIV-1ROJO and HIV-1RF were removed from the freezer (-80°C) and thawed to room temperature in a biological safety cabinet. The virus was resuspended and diluted into tissue culture medium such that the amount of virus added to each well in a volume of 50 µL will be the amount determined to give complete cell killing at 6 days post-infection.
Reverse Transcriptase Activity Assay: A microtiter based reverse transcriptase (RT) reaction was utilized as described by Buckheit et al., (1991), AIDS Research and Human Retroviruses, 7:295-302. Tritiated thymidine triphosphate (^3H-TTP) was suspended in distilled H2O at 5 Ci/mL. Poly rA and oligo dT were prepared as a stock solution which was kept at -20°C. RT reaction buffer was prepared fresh on a daily basis and contained 125 µL 1M EGTA, 125 µL dH2O, 110 µL 10% SDS, 50 µL 1M Tris (pH 7.4), 50 µL 1M DTT, and 40 µL 1M MgCl2. These three solutions were mixed together in a ratio of 2 parts ^3H-TTP, 1 part poly rA:oligo dT, and 1 part reaction buffer. Ten microliters of this reaction mixture were placed in a round bottom microtiter plate and 15 µL of virus containing supernatant were added and mixed. The plate was incubated at 37°C in a water bath with a solid support to prevent submersion of the plate and incubated for 60 minutes.

[2] = system: HIV-1IIIB; experiment: PBMC cell-based anti-HIV assay; details: PBMCs
Description: as §1
Reverse Transcriptase Activity Assay: A microtiter based reverse transcriptase (RT) reaction was utilized as described by Buckheit et al., (1991), AIDS Research and Human Retroviruses, 7:295-302. Tritiated thymidine triphosphate (^3H-TTP) was suspended in distilled H2O at 5 Ci/mL. […] Opti-Fluor-O (Packard) was added to each sample and incorporated radioactivity was quantified utilizing a Wallac 1450 MicroBeta Plus liquid scintillation counter. […]

For `Cc1cn([C@H]2C[C@H](N=[N+]=[N-])[C@@H](CO)O2)c(=O)[nH]c1=O` [AZT, reference compound], the pIC50 ([1]; 2hr pretreatment) was 8.40, the pIC50 ([1]; without pretreatment) was 8.10 and the pIC50 [2] was 8.70.
